{
  "source": "patent US9358244B2",
  "about": "“Solid dosage forms of oleyl phosphocholine” (Oblita Therapeutics BVBA, priority 2010, dated 2016)",
  "key": {"[1]": {"test_system": "Leishmania infantum (MHOM/MA (BE)/67) amastigotes", "test": "Curative efficacy against Leishmania infantum in the hamster model, oral 5 days", "format": "in vivo", "conditions": "for Bone marrow % red / Liver % red / Spleen % red: reduction vs VIC; for Bone marrow Mean ± SE of amastigotes per nucleus / Liver Mean ± SE of LDU / Spleen Mean ± SE of LDU: 10 days after last treatment", "protocol": "Golden hamsters (female, 75 g) were allocated randomly to 7 groups with 8 animals per group. • G1: vehicle infected control (VIC): 200 μl blank vehicle orally 5 days • G2: MIL-PBS: 5×40 mg/kg (=98.1 μmol/kg) orally for 5 days • G3: MIL-PBS: 5×20 mg/kg (=49.1 μmol/kg) orally for 5 days • G4: OlPC-PBS: 5×42.5 mg/kg (=98.1 μmol/kg) orally for 5 days • G5: OlPC-PBS: 5×21.2 mg/kg (=49.1 μmol/kg) orally for 5 days • G6: OlPC-liposomes: 5×2.4 ml/kg (=98.1 μmol/kg) orally for 5 days • G7: OlPC-liposomes: 5×1.2 ml/kg (=49.1 μmol/kg) orally for 5 days Drinking water and food were available ad libitum throughout the experiment. […] Artificial Infection\nLeishmania infantum (MHOM/MA (BE)/67) amastigotes were obtained from the spleen of heavily infected donor hamsters. The total parasite burden was determined on Giemsa-stained smears. Amastigotes in the spleen homogenate were concentrated using two centrifugation steps (low speed (300 rpm) with collection of the supernatant−high speed (4200 rpm) with collection of the pellet). The parasite burdens in the spleen were estimated using the Stauber technique and the amastigote suspension was diluted to prepare the infection inocula for intracardial infection containing 2×10^7 amastigotes/100 μl. At 21 days post infection (=start of treatment), the levels infection were checked in 4 randomly chosen animals by making a smear from a liver biopsy for determination of the parasite burden (cfr. infra).\n• Miltefosine was formulated at 20 mg/ml and 10 mg/ml in PBS and stored at room temperature in the dark. A clear transparent solution was obtained. • OlPC-PBS was formulated at 21.25 mg/ml and 10.63 mg/ml in PBS and stored at room temperature in the dark. A clear transparent solution was obtained. • OlPC-liposome formulation was prepared at 18 mg/ml (dosed at 2.4 ml/kg=120 μl/50 gram). The formulation was diluted 2 times in PBS to obtain a OlPC-formulation of 9 mg/ml (dosed at 1.2 ml/kg=[…])) Treatment\nOral treatment started 21 days after infection (dpi) and was continued for 5 consecutive days. Dosing volume was 100 μl per 50 gram BW (bodyweight).\nParasite Burden: amastigote burdens in the different target organs (liver, spleen, bone-marrow) were determined 10 days after the last treatment (i.e. day 35 of the experiment). The organs of individual animals were weighed (except bone-marrow); impression smears were fixed in methanol and stained with Giemsa for microscopic evaluation of the number of amastigotes per cell by counting a minimum of 500 nuclei1. The results are expressed as Leishman Donovan Units (LDU)=mean number of amastigotes per nucleus×mg organ weight. Percentage reduction as compared to vehicle-treated infected control animals (VIC) is used as a measure for drug activity. Particularly for spleen and bone-marrow, the viability of possible residual burdens was assessed using the promastigote transformation assay."}, "[2]": {"test": "Thermogravimetric analysis (TGA) of OlPC", "format": "physicochemical", "conditions": "with 1% of mass loss, heating rate 10° C./min", "protocol": "Thermogravimetric Analysis (TGA) measures weight changes in a material as a function of temperature (or time) under a controlled atmosphere. Its principal use includes measurement of a material's thermal stability and composition. The TGA analysis was performed using a HR TGA 2950 (TA Instruments, Leatherhead, UK). Samples (±15 mg) were equilibrated at 50° C. and then heated to 500° C. at a heating rate of 10° C./min and the percentage of weight loss was recorded. The OlPC compound show thermal degradation at 159.27° C. with 1% of mass loss."}, "[3]": {"test": "Dynamic vapor sorption, OlPC hygroscopicity", "format": "physicochemical", "conditions": "25° C.", "protocol": "Active pharmaceutical ingredients (API) frequently show a propensity to interact with water molecules, leading to absorption of moisture in their bulk structure or adsorption on their surfaces. Such behaviour can critically affect many pharmaceutical properties such as purity, solubility and chemical stability, density, surface area, powder flow, compact ability and crystal form. […] Dynamic vapor sorption (DVS) analyzes determine hygroscopicity profiles using a very small sample (≈15 mg), and provide both qualitative and quantitative information on water uptake.\nWater sorption/desorption isotherm of OlPC was determined gravimetrically at 25° C. (SD, 0.1° C.) using a DVS Advantage 1 with a Cahn D200 microbalance (Surface Measurement Systems, London, UK). Between 10 and 20 mg was weighed in the sample cup of the instrument, subjected to a drying step in order to bring the sample to a constant weight and subsequently exposed to increasing relative humidity (RH) (using 10% increments up to 90%). Following the sorption phase, the sample was exposed to a decreasing RH (in steps of 10% until 0% RH). Each step continued until equilibrium was reached (i.e. when the change in mass smaller than 0.002% per minute during at least 10 min) or until 6 h had passed. The mass change was recorded every minute with a resolution of ±0.1 μg."}, "Water solubility of OlPC": {"test": "Water solubility of OlPC", "format": "physicochemical", "protocol": "The wet granulation process for OlPC solid dosage formulation requires that OlPC is solubilised in water. OlPC as a water solubility of 0.2 g/ml, which implies that for each tablet with 50 mg of OlPC at least 250 μl of water per tablet has to be incorporated in the dry powder mixture."}, "[4]": {"test": "Compatibility of OlPC with binder in solution", "format": "physicochemical", "description": "The tablets produced presented high levels of friability and high disintegration time. It was observed that the presence of polyvynilpyrrolidone in solution with OlPC induces the formation of an unknown precipitated which indicates the presence of an incompatibility between the two compounds.\nHydroxypropylmethylcellulose was then selected to replace polyvynilpyrrolidone as a binder in the subsequent formulation assays."}, "[5]": {"test_system": "Leishmania infantum (MHOM/MA (BE)/67) amastigotes", "test": "Follow up experiment: single versus multiple oral administrations in L. infantum infected hamsters", "format": "in vivo", "conditions": "hamster, total doses 25, 50 and 100 mg/kg oral, liver, spleen, bone marrow", "protocol": "(§1) In a follow up experiment, the same experimental protocol was used to compare the efficacy of oral oleyl phosphocholine (OlPC) at total doses of 25, 50 and 100 mg/kg when given as single or multiple oral administrations (5×5, 10 and 20 mg/kg, respectively).\n(§2) Female hamsters (n=60) were intracardially infected with 2×10^7 Leishmania infantum (MHOM/MA (BE)/67) amastigotes on day 0. Treatment started at day+21 post infection for 5 consecutive days once daily with a total dose of […] given as single or multiple oral administrations. Amastigote burdens in the different target organs (liver, spleen, bone-marrow) were determined 10 days after the last treatment (day+35). The organs of individual animals were weighed (except bone-marrow); impression smears were fixed in methanol and stained with Giemsa for microscopic evaluation of the number of amastigotes per cell by counting a minimum of 500 nuclei. The results (FIG. 4) are expressed as Leishman Donovan Units (LDU)=mean number of amastigotes per nucleus×mg organ weight."}, "[6]": {"test": "Tolerability in hamsters, follow up experiment", "format": "in vivo", "conditions": "hamster, oral, single administrations as high as 100 mg/kg", "protocol": "as §1, §2"}, "L. infantum": {"test_system": "L. infantum", "test": "Treatment of dogs naturally infected with L. infantum, clinical score", "format": "in vivo", "conditions": "4 mg/kg/day orally 14 days", "protocol": "(§3) The dose of 4 mg/kg/day oleylphosphocholine was used to treat orally during 14 days a cohort of 6 dogs from a shelter naturally infected with L. infantum and classified as clinically sick. The dogs were assessed at the clinical (physical examination and clinic-pathological abnormalities) and parasitological levels at the beginning of the treatment (day 0) and on day 15, 30 and 90."}, "[7]": {"test": "Tolerance in treated naturally infected dogs", "format": "in vivo", "conditions": "6 dogs, 4 mg/kg/day orally 14 days", "protocol": "as §3"}, "[8]": {"conditions": "49.1 μmol/kg (20 mg/kg) orally for 5 days"}, "[9]": {"conditions": "98.1 μmol/kg (40 mg/kg) orally for 5 days"}},
  "data": [
    {"smiles": "CCCCCCCCCCCCCCCCOP(=O)([O-])OCC[N+](C)(C)C", "note": "[Miltefosine]", "values": [
      {"measurement": "Bone marrow % red", "setting": "[1]; [8]", "result": 39, "unit": "%"},
      {"measurement": "Liver % red", "setting": "[1]; [8]", "result": 0, "unit": "%"},
      {"measurement": "Spleen % red", "setting": "[1]; [8]", "result": 61, "unit": "%"},
      {"measurement": "Liver % red", "setting": "[1]; 49.1 μmol/kg (20 mg/kg) orally for 5 days, listed as MIL", "result": "no reduction"},
      {"measurement": "Bone marrow Mean ± SE of amastigotes per nucleus", "setting": "[1]; 49.1 μmol/kg orally for 5 days", "result": "1.0 ± 0.34", "unit": "amastigotes per nucleus"},
      {"measurement": "Liver Mean ± SE of LDU", "setting": "[1]; 49.1 μmol/kg orally for 5 days", "result": "9017 ± 1489", "unit": "LDU"},
      {"measurement": "Spleen Mean ± SE of LDU", "setting": "[1]; 49.1 μmol/kg orally for 5 days", "result": "188 ± 44", "unit": "LDU"},
      {"measurement": "Bone marrow % red", "setting": "[1]; [9]", "result": 95, "unit": "%"},
      {"measurement": "Liver % red", "setting": "[1]; [9]", "result": 65, "unit": "%"},
      {"measurement": "Spleen % red", "setting": "[1]; [9]", "result": 99.2, "unit": "%"},
      {"measurement": "Spleen % red", "setting": "[1]; 98.1 μmol/kg (40 mg/kg) orally for 5 days, listed as MIL", "result": 99, "unit": "%"},
      {"measurement": "Bone marrow Mean ± SE of amastigotes per nucleus", "setting": "[1]; 98.1 μmol/kg orally for 5 days", "result": "0.1 ± 0.014", "unit": "amastigotes per nucleus"},
      {"measurement": "Liver Mean ± SE of LDU", "setting": "[1]; 98.1 μmol/kg orally for 5 days", "result": "2764 ± 847", "unit": "LDU"},
      {"measurement": "Spleen Mean ± SE of LDU", "setting": "[1]; 98.1 μmol/kg orally for 5 days", "result": "3.7 ± 1.67", "unit": "LDU"}
    ]},
    {"smiles": "CCCCCCCC/C=C\\CCCCCCCCOP(=O)([O-])OCC[N+](C)(C)C", "note": "[OlPC, oleyl phosphocholine]", "values": [
      {"measurement": "thermal degradation temperature", "setting": "[2]", "result": 159.27, "unit": "°C"},
      {"measurement": "water absorbed", "setting": "[3]; exposed to 90% RH", "result": 41.67, "unit": "%"},
      {"measurement": "hygroscopicity", "setting": "[3]; water sorption and desorption profiles", "result": "very hygroscopic"},
      {"measurement": "water solubility", "setting": "Water solubility of OlPC", "result": 200, "unit": "mg/mL"},
      {"measurement": "compatibility with hydroxypropylmethylcellulose", "setting": "[4]", "result": "no such incompatibility was observed"},
      {"measurement": "compatibility with polyvinylpyrrolidone in solution", "setting": "[4]; unknown precipitate formed", "result": "incompatibility"},
      {"measurement": "overall parasite suppression levels, single versus multiple administrations", "setting": "[5]", "result": "similar"},
      {"measurement": "tolerability / signs of toxicity", "setting": "[6]", "result": "well tolerated"},
      {"measurement": "average clinical score (CS)", "setting": "L. infantum; day 15 (day 0: 19, range 14-31)", "result": "12 (range 7-16)"},
      {"measurement": "average clinical score (CS)", "setting": "L. infantum; day 30 (day 0: 19, range 14-31)", "result": "5 (range 1-10)"},
      {"measurement": "average clinical score (CS)", "setting": "L. infantum; day 90 (range 0-5; day 0: 19)", "result": 2},
      {"measurement": "tolerance, side effects", "setting": "[7]", "result": "two of the six dogs treated experienced diarrhea during the first week post-treatment, and a third one had diarrhea and 1 episode of vomiting"}
    ]}
  ]
}
